Measured values taken from the supplement of paper PMC10307832.

What was measured:
Assay in all cases: relative viability (nuclei count vs DMSO), 5 days (fraction); higher = more cells survive
[1] = system: A-427
Method in brief: (§1)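 Each reported value is a median over duplicate plates. It expresses relative viability: treated-well nuclei count divided by vehicle-well nuclei count. Lung cancer cell lines in 1536-well plates were dosed by pin tool a day after seeding, alone with one drug or with a fixed anchor-drug dose plus five library-drug doses (not always all listed) in √10 steps, and nuclei were counted after 5 days.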

[2] = system: ABC-1
Method in brief: as §1

[3] = system: COR-L23
Method in brief: as §1

[4] = system: ChaGo-K-1
Method in brief: as §1

[5] = system: EMC-BAC-2
Method in brief: as §1

[6] = system: HARA
Method in brief: as §1

[7] = system: HCC-15
Method in brief: as §1

[8] = system: HCC-366
Method in brief: as §1

[9] = system: HCC-78
Method in brief: as §1

[10] = system: LC-2-ad
Method in brief: as §1

[11] = system: LK-2
Method in brief: as §1

[12] = system: NCI-H1650
Method in brief: as §1

[13] = system: NCI-H1734
Method in brief: as §1

[14] = system: NCI-H1944
Method in brief: as §1

[15] = system: NCI-H1993
Method in brief: as §1

[16] = system: NCI-H2009
Method in brief: as §1

[17] = system: NCI-H2023
Method in brief: as §1

[18] = system: NCI-H2228
Method in brief: as §1

[19] = system: NCI-H23
Method in brief: as §1

[20] = system: NCI-H2405
Method in brief: as §1

[21] = system: NCI-H838
Method in brief: as §1

[22] = system: SK-LU-1
Method in brief: as §1

[23] = system: UMC-11
Method in brief: as §1

COc1cc(N2CCC(C(N)=O)CC2)ccc1Nc1nc(N)c(Cl)c(Nc2ccccc2S(=O)(=O)C(C)C)n1 [HG-5-88-01] + C[C@@H](Oc1cc(-c2cnn(C3CCNCC3)c2)cnc1N)c1c(Cl)ccc(F)c1Cl [Crizotinib] (partner 1 µM)
relative viability ([1]; first compound 0.04 µM): 0.93
relative viability ([1]; first compound 0.1265 µM): 0.952
relative viability ([1]; first compound 0.4 µM): 0.951
relative viability ([1]; first compound 1.265 µM): 0.843
relative viability ([1]; first compound 4 µM): 0.791
relative viability ([2]; first compound 0.04 µM): 1.15
relative viability ([2]; first compound 0.1265 µM): 0.939
relative viability ([2]; first compound 0.4 µM): 0.813
relative viability ([2]; first compound 1.265 µM): 0.606
relative viability ([2]; first compound 4 µM): 0.43
relative viability ([3]; first compound 0.04 µM): 0.651
relative viability ([3]; first compound 0.1265 µM): 0.588
relative viability ([3]; first compound 0.4 µM): 0.645
relative viability ([3]; first compound 1.265 µM): 0.584
relative viability ([3]; first compound 4 µM): 0.389
relative viability ([4]; first compound 0.04 µM): 1.12
relative viability ([4]; first compound 0.1265 µM): 1.14
relative viability ([4]; first compound 0.4 µM): 1.03
relative viability ([4]; first compound 1.265 µM): 0.888
relative viability ([4]; first compound 4 µM): 0.787
relative viability ([5]; first compound 0.04 µM): 0.776
relative viability ([5]; first compound 0.1265 µM): 0.748
relative viability ([5]; first compound 0.4 µM): 0.769
relative viability ([5]; first compound 1.265 µM): 0.77
relative viability ([5]; first compound 4 µM): 0.667
relative viability ([6]; first compound 0.04 µM): 1.09
relative viability ([6]; first compound 0.1265 µM): 0.891
relative viability ([6]; first compound 0.4 µM): 1.08
relative viability ([6]; first compound 1.265 µM): 1.08
relative viability ([6]; first compound 4 µM): 0.695
relative viability ([7]; first compound 0.04 µM): 0.898
relative viability ([7]; first compound 0.1265 µM): 0.775
relative viability ([7]; first compound 0.4 µM): 0.779
relative viability ([7]; first compound 1.265 µM): 0.801
relative viability ([7]; first compound 4 µM): 0.77
relative viability ([8]; first compound 0.04 µM): 0.642
relative viability ([8]; first compound 0.1265 µM): 0.487
relative viability ([8]; first compound 0.4 µM): 0.468
relative viability ([8]; first compound 1.265 µM): 0.441
relative viability ([8]; first compound 4 µM): 0.198
relative viability ([9]; first compound 0.04 µM): 0.37
relative viability ([9]; first compound 0.1265 µM): 0.319
relative viability ([9]; first compound 0.4 µM): 0.31
relative viability ([9]; first compound 1.265 µM): 0.185
relative viability ([9]; first compound 4 µM): 0.275
relative viability ([10]; first compound 0.04 µM): 0.436
relative viability ([10]; first compound 0.1265 µM): 0.496
relative viability ([10]; first compound 0.4 µM): 0.5
relative viability ([10]; first compound 1.265 µM): 0.4
relative viability ([10]; first compound 4 µM): 0.368
relative viability ([11]; first compound 0.04 µM): 0.24
relative viability ([11]; first compound 0.1265 µM): 0.227
relative viability ([11]; first compound 0.4 µM): 0.234
relative viability ([11]; first compound 1.265 µM): 0.249
relative viability ([11]; first compound 4 µM): 0.21
relative viability ([12]; first compound 0.04 µM): 1.04
relative viability ([12]; first compound 0.1265 µM): 1.01
relative viability ([12]; first compound 0.4 µM): 0.948
relative viability ([12]; first compound 1.265 µM): 0.817
relative viability ([12]; first compound 4 µM): 0.373
relative viability ([13]; first compound 0.04 µM): 0.71
relative viability ([13]; first compound 0.1265 µM): 0.709
relative viability ([13]; first compound 0.4 µM): 0.681
relative viability ([13]; first compound 1.265 µM): 0.497
relative viability ([13]; first compound 4 µM): 0.64
relative viability ([14]; first compound 0.04 µM): 1.09
relative viability ([14]; first compound 0.1265 µM): 1.13
relative viability ([14]; first compound 0.4 µM): 1.09
relative viability ([14]; first compound 1.265 µM): 0.82
relative viability ([14]; first compound 4 µM): 1.06
relative viability ([15]; first compound 0.04 µM): 0.988
relative viability ([15]; first compound 0.1265 µM): 0.773
relative viability ([15]; first compound 0.4 µM): 0.892
relative viability ([15]; first compound 1.265 µM): 0.615
relative viability ([15]; first compound 4 µM): 0.753
relative viability ([16]; first compound 0.04 µM): 1.05
relative viability ([16]; first compound 0.1265 µM): 1.03
relative viability ([16]; first compound 0.4 µM): 0.938
relative viability ([16]; first compound 1.265 µM): 0.962
relative viability ([16]; first compound 4 µM): 0.853
relative viability ([17]; first compound 0.04 µM): 0.729
relative viability ([17]; first compound 0.1265 µM): 0.763
relative viability ([17]; first compound 0.4 µM): 0.543
relative viability ([17]; first compound 1.265 µM): 0.405
relative viability ([17]; first compound 4 µM): 0.118
relative viability ([18]; first compound 0.04 µM): 0.677
relative viability ([18]; first compound 0.1265 µM): 0.464
relative viability ([18]; first compound 0.4 µM): 0.454
relative viability ([18]; first compound 1.265 µM): 0.427
relative viability ([18]; first compound 4 µM): 0.307
relative viability ([19]; first compound 0.04 µM): 0.542
relative viability ([19]; first compound 0.1265 µM): 0.43
relative viability ([19]; first compound 0.4 µM): 0.481
relative viability ([19]; first compound 1.265 µM): 0.471
relative viability ([19]; first compound 4 µM): 0.26
relative viability ([20]; first compound 0.04 µM): 0.841
relative viability ([20]; first compound 0.1265 µM): 0.821
relative viability ([20]; first compound 0.4 µM): 0.796
relative viability ([20]; first compound 1.265 µM): 0.599
relative viability ([20]; first compound 4 µM): 0.901
relative viability ([21]; first compound 0.04 µM): 0.799
relative viability ([21]; first compound 0.1265 µM): 0.868
relative viability ([21]; first compound 0.4 µM): 0.641
relative viability ([21]; first compound 1.265 µM): 0.571
relative viability ([21]; first compound 4 µM): 0.596
relative viability ([22]; first compound 0.04 µM): 1.04
relative viability ([22]; first compound 0.1265 µM): 0.793
relative viability ([22]; first compound 0.4 µM): 0.867
relative viability ([22]; first compound 1.265 µM): 0.845
relative viability ([22]; first compound 4 µM): 0.595
relative viability ([23]; first compound 0.04 µM): 0.652
relative viability ([23]; first compound 0.1265 µM): 0.581
relative viability ([23]; first compound 0.4 µM): 0.621
relative viability ([23]; first compound 1.265 µM): 0.445
relative viability ([23]; first compound 4 µM): 0.171
